# Test results as given in patent US9000154B2, “Rho kinase inhibitors” (Boehringer Ingelheim International GmbH, priority 2010, dated 2015).
# pIC50: −log10 of the molar value.
# Target: T1, ROCKII (1-543) (Homo sapiens, UniProt O75116)
# Experiment: IMAP Assay (fluorescence polarization, FAM S6 peptide)
# Assay type: biochemical
# Parameters: 3 nM ROCKII (1-543) diluted in kinase reaction buffer
# Settings: IMAP FP, 1 nM ROCKII (1-543), 100 μM ATP; read-out: Assay 2 IC50
# Description: This assay is performed using FAM S6 substrate peptide (Catalogue #R7184) and IMAP FP Screening Express Kit detection reagents from Molecular Devices (Sunnyvale, Calif.) in IMAP kinase reaction buffer (Tris-HCl, pH 7.2, 10 mM MgCl2, 0.05% NaN3, 0.1% phosphate-free BSA) containing 1 mM DTT. Test compounds dissolved in neat DMSO at 0.3 mg/mL are serially diluted 1 to 3 for concentration response in 100% DMSO. The DMSO serial dilutions are further diluted 33.33-fold in kinase reaction buffer, and 10 μL of this buffer dilution is transferred to Corning black 96-well half area NBS plates for a final top concentration of 3 μg/mL in 1% DMSO. 10 μL aliquot of 3 nM ROCKII (1-543) diluted in kinase reaction buffer is added to each assay well for a final concentration of 1 nM kinase. 10 μL of a mixture of 600 nM FAM S6 peptide and 300 μM ATP diluted in kinase reaction buffer is added to each well for a final concentration of 200 nM peptide and 100 μM ATP. The kinase reaction mixture is incubated for 60 minutes at room temperature. Positive controls are reaction mixtures containing no test compound and negative controls (blanks) are reaction mixtures containing no kinase. The kinase reaction is stopped by addition of 60 μL IMAP progressive binding reagent (Catalog #R7284) diluted 400-fold in 1× Binding buffer A. After 30 min of incubation at room temperature, the plates are read for fluorescence polarization on Analyst Plate Reader using Ex 485 nm, Em 530 nm, and FL 505 dichroic mirror. The mP signals are converted to percent of control (POC) values using the formula: POC=100*(Signal−BCTRL)÷(PCTRL−BCTRL)
# Target sequence in this assay (O75116 1-543, species assumed): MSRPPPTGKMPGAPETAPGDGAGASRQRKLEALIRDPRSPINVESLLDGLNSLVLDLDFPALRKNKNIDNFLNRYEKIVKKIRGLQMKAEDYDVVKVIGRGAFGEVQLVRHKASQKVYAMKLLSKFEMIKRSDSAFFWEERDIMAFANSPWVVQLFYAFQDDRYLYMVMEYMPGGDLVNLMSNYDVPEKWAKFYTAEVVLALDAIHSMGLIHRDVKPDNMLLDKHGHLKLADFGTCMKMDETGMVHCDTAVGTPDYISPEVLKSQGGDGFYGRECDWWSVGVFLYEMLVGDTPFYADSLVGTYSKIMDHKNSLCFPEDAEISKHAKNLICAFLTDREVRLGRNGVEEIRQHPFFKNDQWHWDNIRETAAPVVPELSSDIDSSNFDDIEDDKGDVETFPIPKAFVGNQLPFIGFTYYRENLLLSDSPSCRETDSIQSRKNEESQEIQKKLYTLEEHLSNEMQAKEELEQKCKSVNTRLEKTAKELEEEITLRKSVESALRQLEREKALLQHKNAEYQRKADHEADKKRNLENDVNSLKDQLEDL
# Where Signal is the test well signal, BCTRL is the average of background (negative control) well signals on the plate and PCTRL is the average of positive control well signals on the plate. For the concentration-responsive compounds, POC as a function of test compound concentration is fitted to a 4-parameter logistic equation of the form: Y=A+(B−A)/[1+(x/C)D]
# Where A, B, C, and D are fitted parameters (parameter B is fixed at zero POC), and x and y are the independent and dependent variables, respectively. The IC50 is determined as the inflection point parameter, C.
row,Compound,pIC50
1,"CN(C)[C@H]1CCc2nc(NC(=O)c3cccc(Cn4cc(-c5ccc(C#N)cc5)nn4)c3)sc2C1 [Compound 4, 3-[4-(4-Cyano-phenyl)-[1,2,3]triazol-1-ylmethyl]-N—((S)-6-dimethylamino-4,5,6,7-tetrahydro-benzothiazol-2-yl)-benzamide]",9.31
2,"CN(C)[C@H]1CCc2nc(NC(=O)c3cccc(Cn4cc(-c5ccc(C#N)cc5)cn4)c3)sc2C1 [Compound 5, 3-[4-(4-Cyano-phenyl)-pyrazol-1-ylmethyl]-N—((S)-6-dimethylamino-4,5,6,7-tetrahydro-benzothiazol-2-yl)-benzamide]",9.70
3,"N#Cc1ccc(-c2cnn(Cc3cccc(C(=O)Nc4nc5c(s4)C[C@@H](N4CCOCC4)CC5)c3)c2)cc1 [Compound 7, 3-[4-(4-Cyano-phenyl)-pyrazol-1-ylmethyl]-N—((S)-6-morpholin-4-yl-4,5,6,7-tetrahydro-benzothiazol-2-yl)-benzamide]",9.40
4,"N#Cc1ccc(-c2cn(Cc3cccc(C(=O)Nc4nc5c(s4)C[C@@H](N4CCOCC4)CC5)c3)nn2)cc1 [Compound 8, 3-[4-(4-Cyano-phenyl)-[1,2,3]triazol-1-ylmethyl]-N—((S)-6-morpholin-4-yl-4,5,6,7-tetrahydro-benzothiazol-2-yl)-benzamide]",9.00
5,"CN1CCN(C2CCc3nc(NC(=O)c4cccc(Cn5cc(-c6ccc(C#N)cc6)cn5)c4)sc3C2)CC1 (stereo not drawn) [Compound 11, 3-[4-(4-Cyano-phenyl)-pyrazol-1-ylmethyl]-N-[6-(4-methyl-piperazin-1-yl)-4,5,6,7-tetrahydro-benzothiazol-2-yl]-benzamide]",9.24
6,"N#CCCN[C@H]1CCc2nc(NC(=O)c3cccc(Cn4cc(-c5ccc(C#N)cc5)nn4)c3)sc2C1 [Compound 13, N—[(S)-6-(2-Cyano-ethylamino)-4,5,6,7-tetrahydro-benzothiazol-2-yl]-3-[4-(4-cyano-phenyl)-[1,2,3]triazol-1-ylmethyl]-benzamide]",9.00
7,"COCCN(C)C1CCc2nc(NC(=O)c3cccc(Cn4cc(-c5ccc(C#N)cc5)cn4)c3)sc2C1 (stereo not drawn) [Compound 14, 3-[4-(4-Cyano-phenyl)-pyrazol-1-ylmethyl]-N-{6-[(2-methoxy-ethyl)-methyl-amino]-4,5,6,7-tetrahydro-benzothiazol-2-yl}-benzamide]",9.39
8,"N#Cc1ccc(-c2cnn(Cc3cccc(C(=O)Nc4nc5c(s4)C[C@@H](NCCC(F)(F)F)CC5)c3)c2)cc1 [Compound 20, 3-[4-(4-Cyano-phenyl)-pyrazol-1-ylmethyl]-N—[(S)-6-(3,3,3-trifluoro-propylamino)-4,5,6,7-tetrahydro-benzothiazol-2-yl]-benzamide]",9.33
9,"CN1CCN(C2CCc3nc(NC(=O)c4cccc(Cn5cc(-c6ccc(C#N)cc6)nn5)c4)sc3C2)CC1 (stereo not drawn) [Compound 23, 3-[4-(4-Cyano-phenyl)-[1,2,3]triazol-1-ylmethyl]-N-[6-(4-methyl-piperazin-1-yl)-4,5,6,7-tetrahydro-benzothiazol-2-yl]-benzamide]",8.89
10,"CN1CCN([C@H]2CCc3nc(NC(=O)c4cccc(Cn5cc(-c6ccc(C#N)cc6)cn5)c4)sc3C2)CC1 [Compound 25, 3-[4-(4-Cyano-phenyl)-pyrazol-1-ylmethyl]-N—[(S)-6-(4-methyl-piperazin-1-yl)-4,5,6,7-tetrahydro-benzothiazol-2-yl]-benzamide]",9.19
11,"N#Cc1ccc(-c2cnn(Cc3cccc(C(=O)Nc4nc5c(s4)C[C@@H](N)CC5)c3)c2)cc1 [Compound 28, N—((S)-6-Amino-4,5,6,7-tetrahydro-benzothiazol-2-yl)-3-[4-(4-cyano-phenyl)-pyrazol-1-ylmethyl]-benzamide]",9.46
12,"N#Cc1ccc(-c2cn(Cc3cccc(C(=O)Nc4nc5c(s4)C[C@@H](N)CC5)c3)nn2)cc1 [Compound 29, N—((S)-6-Amino-4,5,6,7-tetrahydro-benzothiazol-2-yl)-3-[4-(4-cyano-henyl)-[1,2,3]triazol-1-ylmethyl]-benzamide]",9.14
13,"CN(CCC(F)(F)F)[C@H]1CCc2nc(NC(=O)c3cccc(Cn4cc(-c5ccc(C#N)cc5)nn4)c3)sc2C1 [Compound 31, 3-[4-(4-Cyano-phenyl)-[1,2,3]triazol-1-ylmethyl]-N-{(S)-6-[methyl-(3,3,3-trifluoro-propyl)-amino]-4,5,6,7-tetrahydro-benzothiazol-2-yl}-benzamide]",8.51
14,"N#CCCN[C@H]1CCc2nc(NC(=O)c3cccc(Cn4cc(-c5ccc(C#N)cc5)cn4)c3)sc2C1 [Compound 33, N—[(S)-6-(2-Cyano-ethylamino)-4,5,6,7-tetrahydro-benzothiazol-2-yl]-3-[4-(4-cyano-phenyl)-pyrazol-1-ylmethyl]-benzamide]",9.46
15,"COCCN(C)[C@H]1CCc2nc(NC(=O)c3cccc(Cn4cc(-c5ccc(C#N)cc5)cn4)c3)sc2C1 [Compound 46, 3-[4-(4-Cyano-phenyl)-pyrazol-1-ylmethyl]-N-{(S)-6-[(2-methoxy-ethyl)-methyl-amino]-4,5,6,7-tetrahydro-benzothiazol-2-yl}-benzamide]",9.47
16,"COCCN[C@H]1CCc2nc(NC(=O)c3cccc(Cn4cc(-c5ccc(C#N)cc5)nn4)c3)sc2C1 [Compound 48, 3-[4-(4-Cyano-phenyl)-[1,2,3]triazol-1-ylmethyl]-N—[(S)-6-(2-methoxy-ethylamino)-4,5,6,7-tetrahydro-benzothiazol-2-yl]-benzamide]",9.49

# Target: T1, ROCKII (1-543)
# Experiment: Luciferin-Luciferase Assay (PKLight ATP detection)
# Assay type: biochemical
# Parameters: ROCKII (1-543) (62,408 Da) was diluted in assay buffer
# Settings: 7.5 nM ROCKII (1-543), 750 nM ATP
# Description: 1. Luciferin-Luciferase Assay
# The activity of ROCKII (1-543) kinase was measured utilizing Cambrex PKLight ATP Detection Reagent, a homogeneous assay technology using luciferin-luciferase to quantify residual ATP. The assay was performed in 384-well low-volume, white, non-binding surface microtiter plates (Corning). The assay buffer was 25 mM HEPES, pH 7.5, 10 mM MgCl2, 50 mM KCl, 0.2% BSA, 0.01% CHAPS, 100 μM Na3VO4 and 0.5 mM DTT. Test compounds, dissolved in neat DMSO at 500 μg/mL, were serially diluted for dose response for a final starting concentration of 3 μg/mL in 1% DMSO of assay buffer. ROCKII (1-543) (62,408 Da) was diluted in assay buffer to a final concentration of 7.5 nM in a total volume of 15 μL. Positive controls were reaction mixtures containing no test compound; negative controls (blanks) were reaction mixtures containing no kinase. After 15 minutes of pre-incubation of the test compounds with the kinase, a mixture of ATP and peptide substrate (AKRRRLSSLRA) in assay buffer was added to each well for a final concentration of 750 nM ATP and 500 nM peptide, respectively. After 90 minutes of incubation of the kinase reaction at 28° C. temperature, 10 μL of PKLight ATP Detection Reagent (warmed to room temperature previously) was added to each well. The assay plate was incubated at room temperature for additional 15 minutes and then read on an Analyst in luminescence mode. Dose-response experiments for each of the test compounds were conducted in quadruplet. IC50 values of test compounds represent 50% response of the positive control from the dose-response curve.
# Target sequence in this assay (O75116 1-543): as the sequence (O75116 1-543, species assumed) above
row,Compound,pIC50
1,"N#Cc1cccc(-c2ccnc(Cc3cccc(C(=O)Nc4nc5c(s4)C[C@@H](N4CCOCC4)CC5)c3)n2)c1 [Compound 36, 3-[4-(3-Cyano-phenyl)-pyrimidin-2-ylmethyl]-N—((S)-6-morpholin-4-yl-4,5,6,7-tetrahydro-benzothiazol-2-yl)-benzamide]",8.00
2,"N#Cc1ccc(-c2cnn(Cc3cccc(C(=O)Nc4nc5c(s4)CC(NCC(F)F)CC5)c3)c2)cc1 (stereo not drawn) [Compound 51, 3-[4-(4-Cyano-phenyl)-pyrazol-1-ylmethyl]-N-[6-(2,2-difluoro-ethylamino)-4,5,6,7-tetrahydro-benzothiazol-2-yl]-benzamide]",8.74
3,"N#Cc1ccc(-c2cn(Cc3cccc(C(=O)Nc4nc5c(s4)CC(NCC(F)F)CC5)c3)nn2)cc1 (stereo not drawn) [Compound 52, 3-[4-(4-Cyano-phenyl)-[1,2,3]triazol-1-ylmethyl]-N-[6-(2,2-difluoro-ethylamino)-4,5,6,7-tetrahydro-benzothiazol-2-yl]-benzamide]",8.03
4,"CN(CCC#N)[C@H]1CCc2nc(NC(=O)c3cccc(Cn4cc(-c5ccc(C#N)cc5)cn4)c3)sc2C1 [Compound 53, N-{(S)-6-[(2-Cyano-ethyl)-methyl-amino]-4,5,6,7-tetrahydro-benzothiazol-2-yl}-3-[4-(4-cyano-phenyl)-pyrazol-1-ylmethyl]-benzamide]",8.72
5,"COCCN[C@@H]1CCc2nc(NC(=O)c3cccc(Cn4cc(-c5ccc(C#N)cc5)cn4)c3)sc2C1 [Compound 57, 3-[4-(4-Cyano-phenyl)-pyrazol-1-ylmethyl]-N—[(R)-6-(2-methoxy-ethylamino)-4,5,6,7-tetrahydro-benzothiazol-2-yl]-benzamide]",8.72
